Measurements: ChEMBL document CHEMBL1132138, “Leishmanicidal activity of combretastatin analogues and heteroanalogues” (Bioorg Med Chem Lett, 1999)
The source made the active and inactive calls. The rule behind the calls is not given here.

Columns and labels:
Assay type in all cases: functional, organism-based
Leishmania amazonensis [1] = experiment: In vitro evaluation of leishmanicidal activity against Leishmania amazonensis (PH8) at a dose 100 ug/mL; ++ = 80-90% of lysis
Leishmania braziliensis [2] = experiment: Compound was tested in vitro for leishmanicidal activity against Leishmania brasiliensis (2903) at a dose 100 ug/mL; ++ = 80-90% of lysis
Leishmania donovani [3] = experiment: Compound was tested in vitro for leishmanicidal activity against Leishmania donovani (PP75) at a dose 100 ug/mL; ++ = 80-90% of lysis
Leishmania braziliensis [4] = experiment: In vitro evaluation of leishmanicidal activity against Leishmania brasiliensis (2903) at a dose 10 ug/mL; ++ = 80- 90% lysis
Leishmania donovani [5] = experiment: In vitro evaluation of leishmanicidal activity against Leishmania donovani (PP75) at a dose 10 ug/mL; ++ = 80- 90% lysis
Leishmania amazonensis [6] = experiment: In vitro evaluation of leishmanicidal activity against Leishmania amazonensis (PH8) at a dose 10 ug/mL; ++ = 80- 90% lysis
Leishmania donovani [7] = experiment: In vitro evaluation of leishmanicidal activity against Leishmania donovani (PP75) at a dose 50 ug/mL; ++ = 80- 90% lysis
Leishmania braziliensis [8] = experiment: In vitro evaluation of leishmanicidal activity against Leishmania brasiliensis (2903) at a dose 50 ug/mL; ++ = 80- 90% lysis
Leishmania amazonensis [9] = experiment: In vitro evaluation of leishmanicidal activity against Leishmania amazonensis (PH8) at a dose 100 ug/mL; ++ = 80- 90% lysis
Leishmania amazonensis [10] = experiment: In vitro evaluation of leishmanicidal activity against Leishmania amazonensis (PH8) at a dose 50 ug/mL; ++ = 80- 90% lysis
Leishmania braziliensis [11] = experiment: In vitro evaluation of leishmanicidal activity against Leishmania brasiliensis (2903) at a dose 100 ug/mL; ++ = 80- 90% lysis
Leishmania braziliensis [12] = experiment: In vitro evaluation of leishmanicidal activity against Leishmania brasiliensis (2903) at a dose 100 ug/mL; + = <70% lysis
Leishmania donovani [13] = experiment: In vitro evaluation of leishmanicidal activity against Leishmania donovani (PP75) at a dose 100 ug/mL; + = <70% lysis
Leishmania amazonensis [14] = experiment: In vitro evaluation of leishmanicidal activity against Leishmania amazonensis (PH8) at a dose 100 ug/mL; + = <70% lysis
Leishmania donovani [15] = experiment: In vitro evaluation of leishmanicidal activity against Leishmania donovani (PP75) at a dose 25 ug/mL; ++ = 80- 90% lysis
Leishmania amazonensis [16] = experiment: In vitro evaluation of leishmanicidal activity against Leishmania amazonensis (PH8) at a dose 25 ug/mL; ++ = 80- 90% lysis
Leishmania braziliensis [17] = experiment: In vitro evaluation of leishmanicidal activity against Leishmania brasiliensis (2903) at a dose 25 ug/mL; ++ = 80- 90% lysis
Leishmania donovani [18] = experiment: In vitro evaluation of leishmanicidal activity against Leishmania donovani (PP75) at a dose 100 ug/mL; ++ = 80- 90% lysis
Leishmania amazonensis [19] = experiment: In vitro evaluation of leishmanicidal activity against Leishmania amazonensis (PH8) at a dose 50 ug/mL;++ = 80- 90% lysis
Leishmania braziliensis [20] = experiment: In vitro evaluation of leishmanicidal activity against Leishmania brasiliensis (2903) at a dose 100 ug/mL; +++=total lysis of parasites
Leishmania amazonensis [21] = experiment: In vitro evaluation of leishmanicidal activity against Leishmania amazonensis (PH8) at a dose 10 ug/mL; +++=total lysis of parasites
Leishmania donovani [22] = experiment: In vitro evaluation of leishmanicidal activity against Leishmania donovani (PP75) at a dose 10 ug/mL; +++=total lysis of parasites
Leishmania donovani [23] = experiment: In vitro evaluation of leishmanicidal activity against Leishmania donovani (PP75) at a dose 100 ug/mL; +++=total lysis of parasites
Leishmania donovani [24] = experiment: In vitro evaluation of leishmanicidal activity against Leishmania donovani (PP75) at a dose 25 ug/mL; +++=total lysis of parasites
Leishmania amazonensis [25] = experiment: In vitro evaluation of leishmanicidal activity against Leishmania amazonensis (PH8) at a dose 25 ug/mL; Total lysis of parasites
Leishmania braziliensis [26] = experiment: In vitro evaluation of leishmanicidal activity against Leishmania brasiliensis (2903) at a dose 25 ug/mLv
Leishmania amazonensis [27] = experiment: In vitro evaluation of leishmanicidal activity against Leishmania amazonensis (PH8) at a dose 100 ug/mL; +++=total lysis of parasites
Leishmania amazonensis [28] = experiment: In vitro evaluation of leishmanicidal activity against Leishmania amazonensis (PH8) at a dose 50 ug/mL; Total lysis of parasites
Leishmania braziliensis [29] = experiment: In vitro evaluation of leishmanicidal activity against Leishmania brasiliensis (2903) at a dose 50 ug/mL; +++=total lysis of parasites
Leishmania braziliensis [30] = experiment: In vitro evaluation of leishmanicidal activity against Leishmania brasiliensis (2903) at a dose 10 ug/mL; +++=total lysis of parasites
Leishmania donovani [31] = experiment: In vitro evaluation of leishmanicidal activity against Leishmania donovani (PP75) at a dose 50 ug/mL; +++=total lysis of parasites

With COc1cc(CC2(c3cn(C)c4ccccc34)SCCCS2)cc(OC)c1OC the Leishmanicidal activity (Leishmania amazonensis [1]) was 80-90% of lysis, the Leishmanicidal activity (Leishmania braziliensis [2]) was 80-90% of lysis and the Leishmanicidal activity (Leishmania donovani [3]) was 80-90% of lysis.

For COc1cc(CC(=O)c2ccco2)cc(OC)c1OC, the Leishmanicidal activity (Leishmania braziliensis [4]) was 80- 90% lysis, the Leishmanicidal activity (Leishmania donovani [5]) was 80- 90% lysis and the Leishmanicidal activity (Leishmania amazonensis [6]) was 80- 90% lysis.

For COc1ccc(CCc2ccc3c(c2)OCO3)cc1O, the Leishmanicidal activity (Leishmania donovani [7]) was 80- 90% lysis, the Leishmanicidal activity (Leishmania braziliensis [8]) was 80- 90% lysis and the Leishmanicidal activity (Leishmania amazonensis [9]) was 80- 90% lysis. The Leishmanicidal activity (Leishmania amazonensis [10]) was 80- 90% lysis and the Leishmanicidal activity (Leishmania braziliensis [11]) was 80- 90% lysis.

In the case of COc1cc(C(O)C(=O)c2cccs2)cc(OC)c1OC (stereo not given), the Leishmanicidal activity (Leishmania braziliensis [12]) was under 70% lysis, the Leishmanicidal activity (Leishmania donovani [13]) was under 70% lysis and the Leishmanicidal activity (Leishmania amazonensis [14]) was under 70% lysis.

COc1cc(CC(=O)c2ccc3c(c2)OCO3)cc(OC)c1OC was tested, and the Leishmanicidal activity (Leishmania donovani [15]) was 80- 90% lysis, the Leishmanicidal activity (Leishmania braziliensis [4]) was 80- 90% lysis and the Leishmanicidal activity (Leishmania braziliensis [8]) was 80- 90% lysis. The Leishmanicidal activity (Leishmania donovani [5]) was 80- 90% lysis, the Leishmanicidal activity (Leishmania amazonensis [16]) was 80- 90% lysis and the Leishmanicidal activity (Leishmania amazonensis [6]) was 80- 90% lysis. The Leishmanicidal activity (Leishmania braziliensis [17]) was 80- 90% lysis.

COc1cc(CC(=O)c2ccoc2)cc(OC)c1OC was tested, and the Leishmanicidal activity (Leishmania donovani [18]) was 80- 90% lysis, the Leishmanicidal activity (Leishmania amazonensis [9]) was 80- 90% lysis and the Leishmanicidal activity (Leishmania braziliensis [11]) was 80- 90% lysis.

In the case of COc1cc(CCc2ccoc2)cc(OC)c1OC, the Leishmanicidal activity (Leishmania braziliensis [12]) was under 70% lysis and the Leishmanicidal activity (Leishmania donovani [13]) was under 70% lysis.

With COc1ccc2[nH]c(-c3ccc4c(c3)OCO4)c(-c3cc(OC)c(OC)c(OC)c3)c2c1 the Leishmanicidal activity (Leishmania donovani [7]) was 80- 90% lysis, the Leishmanicidal activity (Leishmania braziliensis [8]) was 80- 90% lysis and the Leishmanicidal activity (Leishmania amazonensis [19]) was 80- 90% lysis.

With COc1cc(CCc2cn(C)c3ccccc23)cc(OC)c1OC the Leishmanicidal activity (Leishmania donovani [15]) was 80- 90% lysis, the Leishmanicidal activity (Leishmania braziliensis [4]) was 80- 90% lysis and the Leishmanicidal activity (Leishmania donovani [5]) was 80- 90% lysis. For the same compound, the Leishmanicidal activity (Leishmania amazonensis [16]) was 80- 90% lysis, the Leishmanicidal activity (Leishmania amazonensis [6]) was 80- 90% lysis and the Leishmanicidal activity (Leishmania braziliensis [17]) was 80- 90% lysis.

COc1ccc2[nH]c(-c3ccc4ccccc4c3)c(-c3cc(OC)c(OC)c(OC)c3)c2c1 was tested, and the Leishmanicidal activity (Leishmania donovani [18]) was 80- 90% lysis, the Leishmanicidal activity (Leishmania amazonensis [9]) was 80- 90% lysis and the Leishmanicidal activity (Leishmania braziliensis [11]) was 80- 90% lysis.

COc1cc(CC(O)c2ccco2)cc(OC)c1OC (stereo not given) was tested, and the Leishmanicidal activity (Leishmania donovani [18]) was 80- 90% lysis, the Leishmanicidal activity (Leishmania amazonensis [9]) was 80- 90% lysis and the Leishmanicidal activity (Leishmania braziliensis [11]) was 80- 90% lysis.

COc1ccc(CCc2ccco2)cc1O was tested, and the Leishmanicidal activity (Leishmania donovani [18]) was 80- 90% lysis, the Leishmanicidal activity (Leishmania amazonensis [9]) was 80- 90% lysis and the Leishmanicidal activity (Leishmania braziliensis [11]) was 80- 90% lysis.

COc1ccc(CC(=O)c2ccco2)cc1O was tested, and the Leishmanicidal activity (Leishmania donovani [18]) was 80- 90% lysis, the Leishmanicidal activity (Leishmania amazonensis [9]) was 80- 90% lysis and the Leishmanicidal activity (Leishmania braziliensis [11]) was 80- 90% lysis.

With COc1cc(CC(=O)c2ccc(C)o2)cc(OC)c1OC the Leishmanicidal activity (Leishmania donovani [18]) was 80- 90% lysis, the Leishmanicidal activity (Leishmania braziliensis [4]) was 80- 90% lysis and the Leishmanicidal activity (Leishmania donovani [5]) was 80- 90% lysis. The Leishmanicidal activity (Leishmania amazonensis [6]) was 80- 90% lysis.

COc1cc(CCc2ccco2)cc(OC)c1OC was tested, and the Leishmanicidal activity (Leishmania donovani [18]) was 80- 90% lysis, the Leishmanicidal activity (Leishmania donovani [15]) was 80- 90% lysis and the Leishmanicidal activity (Leishmania braziliensis [4]) was 80- 90% lysis. The Leishmanicidal activity (Leishmania donovani [5]) was 80- 90% lysis, the Leishmanicidal activity (Leishmania amazonensis [16]) was 80- 90% lysis and the Leishmanicidal activity (Leishmania amazonensis [6]) was 80- 90% lysis. For the same compound, the Leishmanicidal activity (Leishmania braziliensis [17]) was 80- 90% lysis.

N=C(N)c1ccc(OCCCCCOc2ccc(C(=N)N)cc2)cc1 was tested, and the Leishmanicidal activity (Leishmania braziliensis [20]) was “Active”, the Leishmanicidal activity (Leishmania amazonensis [21]) was “Active” and the Leishmanicidal activity (Leishmania donovani [22]) was “Active”. For the same compound, the Leishmanicidal activity (Leishmania donovani [23]) was “Active”, the Leishmanicidal activity (Leishmania donovani [24]) was “Active” and the Leishmanicidal activity (Leishmania amazonensis [25]) was “Active”. For the same compound, the Leishmanicidal activity (Leishmania braziliensis [26]) was “Active”, the Leishmanicidal activity (Leishmania amazonensis [27]) was “Active” and the Leishmanicidal activity (Leishmania amazonensis [28]) was “Active”. For the same compound, the Leishmanicidal activity (Leishmania braziliensis [29]) was “Active”, the Leishmanicidal activity (Leishmania braziliensis [30]) was “Active” and the Leishmanicidal activity (Leishmania donovani [31]) was “Active”.

In the case of COc1cc(CC(O)c2ccc3c(c2)OCO3)cc(OC)c1OC (stereo not given), the Leishmanicidal activity (Leishmania donovani [7]) was 80- 90% lysis, the Leishmanicidal activity (Leishmania donovani [15]) was 80- 90% lysis and the Leishmanicidal activity (Leishmania braziliensis [4]) was 80- 90% lysis. For the same compound, the Leishmanicidal activity (Leishmania braziliensis [8]) was 80- 90% lysis, the Leishmanicidal activity (Leishmania donovani [5]) was 80- 90% lysis and the Leishmanicidal activity (Leishmania amazonensis [16]) was 80- 90% lysis. The Leishmanicidal activity (Leishmania amazonensis [6]) was 80- 90% lysis, the Leishmanicidal activity (Leishmania amazonensis [10]) was 80- 90% lysis and the Leishmanicidal activity (Leishmania braziliensis [17]) was 80- 90% lysis.

For COc1ccc2[nH]c(-c3ccco3)c(-c3cc(OC)c(OC)c(OC)c3)c2c1, the Leishmanicidal activity (Leishmania braziliensis [4]) was 80- 90% lysis, the Leishmanicidal activity (Leishmania donovani [5]) was 80- 90% lysis and the Leishmanicidal activity (Leishmania amazonensis [6]) was 80- 90% lysis.

COc1cc(CCc2ccc3ccccc3c2)cc(OC)c1OC was tested, and the Leishmanicidal activity (Leishmania donovani [7]) was 80- 90% lysis, the Leishmanicidal activity (Leishmania braziliensis [8]) was 80- 90% lysis and the Leishmanicidal activity (Leishmania amazonensis [10]) was 80- 90% lysis.
